The subject of the experiment is T1, rGILCC1 laccase (GlLCC1).
T1 construct: previously optimized synthetic gene in pGAPZalphaA (pGAPZαA-LacGluc-Stop, also pGAPZαA-GlucPost-Stop, clone 1), secreted by Pichia pastoris X33; concentrated culture supernatant (10 kDa membrane), not purified
The experiment in a line: spectrophotometric ABTS oxidation at […] nm, Hanes-Woolf. The format is biochemical, Ganoderma lucidum. Conditions: concentrated culture supernatant, not pure enzyme; 600 mM sodium acetate buffer, pH 4.5, 25°C; read-out: apparent Km.

With `CCn1c(=NN=c2sc3cc(S(=O)(=O)O)ccc3n2CC)sc2cc(S(=O)(=O)O)ccc21` [ABTS, 2,20-azino-bis(3-ethylbenzothiazoline-6-sulphonic acid)], the Km is 53.6 µM.
